{"source": "patent US12404332B2", "about": "“Methods for diagnosing and treating cancers” (Research Development Foundation, priority 2020, dated 2025)", "key": {"[1]": {"system": "PD-L1", "experiment": "Tumor cell PD-L1 depletion by drugs (flow cytometry, immunoblot)", "assay_type": "cell-based, human and mouse", "description": "High throughput Screening: B16 PD-L1 RFP cells were treated with 2.5 and 10 μM compounds from the Prestwick and LOPAC Libraries for 48 hours using the Agilent Bravo liquid pipetting platform. Then, cells were washed with PBS, and fixed with 4% paraformaldehyde (Electron Microscopy Sciences, Hatsfield, PA, Cat 15714S) and labeled with 2 μg/ml DAPI, (Molecular Probes, Cat D1306) and 1 μg/ml Cell Mask-Blue (Invitrogen, Cat. H32720). Plates were then imaged using the Operetta High Content Imaging System, Perkin Elmer, Waltham (DAPI and Cell Mask Blue, Ex 360-400, Em 410-480), and the RFP channels (Ex 520-550, Em 560-630) channels. Agents effecting ≥2-fold PD-L1 reduction in the RFP reporter without loss of ≥20% cell viability were candidate PD-L1 depletion agents.\n(§1) Flow cytometry: Mice were sacrificed by cervical dislocation after induction of deep isoflurane anesthesia. ID8agg tumors were collected and cells were stained as described (Derup et al., 2020) using LSR II hardware and analyzed by FACS Diva (BD Bioscience) or Flow Jo software (Flow Jo, LLC). Anti-mouse (clone 10F.9G2) and human (clone 29E.2A3) PD-L1 [both PE/Cy7, Cat #124314 (mouse) 329718 (human)] were matched with isotype control. Apoptosis assessment used Annexin V and propidium iodide (Thermo Scientific) per manufacturer instruction.\n(§2) Western blotting and immunoprecipitation: To prepare whole cell lysates, cells were harvested and lysed in RIPA (radioimmunoprecipitation assay) buffer plus 1 mM phenylmethylsulphonyl fluoride and Halt protease/phosphatase inhibitor cocktail (Thermo Scientific) at 4° C. Protein concentrations were measured by BCA Protein Assay Kit (Thermo Scientific). Protein was run on precast 4-15% sodium dodecyl sulfate polyacrylamide gels (Bio-Rad), transferred to polyvinylidene fluoride membranes (GE Water and Process Technologies), and then blocked in 5% non-fat milk for 1 hour at room temperature. The membranes were then incubated with 1:1000 diluted primary antibodies against indicated proteins (Cell Signaling). Specific antibody binding was detected by chemiluminescence using Western Lightening Plus regent (Perkin Elmer). Cells for (co) immunoprecipitation experiments were seeded in 15-cm dishes and cultured as described, using 6 million cells per immunoprecipitation reaction. For protein ubiquitination, cells were lysed in denaturing buffer (50 mM Tris-HCl, 0.5 mM EDTA and 1% SDS) followed by heating at 95° C. for 10 minutes and then quenched with 9 volumes of quenching buffer (0.5% Triton X-100, 20 mM Tris-HCl (pH 8.0), 137 mM NaCl, 10% glycerol, 2 mM EDTA). Protease inhibitor cocktail (Roche) was added fresh to all buffers. Cell lysates were incubated on a rotator for 30 minutes at 4° C., and then centrifuged at 20,000 g for 15 minutes at 4° C. Supernatants were subsequently incubated with anti-PD-L1 antibody overnight and processed using Dynabeads Protein G for Immunoprecipitation (Thermo Fisher Scientific). The final eluate was processed and Western blotting was performed."}, "[2]": {"system": "PD-L1 in ID8agg cells", "experiment": "PD-L1 mRNA (RT-qPCR) in ID8agg cells", "assay_type": "cell-based, mouse", "description": "FIGS. 39A-C: CAMB reduces PD-L1 through ubiquitination. FIG. 39A, RT-qPCR for PD-L1 mRNA in OVCAR5 and ID8agg cells treated with (+) or without (−) chlorambucil for 48 hours. (n=4). FIG. 39B, Western blot for PD-L1 protein in OVCAR5 cells with (+) or without (−) MG132 for 6 or 20 hours. (upper panel). PD-L1 expression in OVCAR5 cells treated with chlorambucil 48 hours and/or MG132 for 6 hours (lower panel). FIG. 39C, Ubiquitinated PD-L1 was immunoprecipitated (IP) and subjected to Western blot analysis with anti-ubiquitin (Ub) antibody. Cells were treated with chlorambucil for indicated times prior to ubiquitination analysis.\nQuantitative Real-Time Reverse Transcriptase Polymerase Chain Reaction: Total RNA was isolated from homogenized whole lung tissue with Trizol reagent (Invitrogen) according to manufacturer instructions. Subsequently, cDNA was synthesized with 1-2 μg of total RNA using the, SuperScript III reverse transcriptase (Invitrogen). Quantitative PCR (qPCR) was conducted using the Bio-Rad Real-Time PCR System (Applied Biosystems), amplified with transcript-specific primers with SYBR Green (Thermo Scientific), according to manufacturer instructions. Mouse primers were: Tyr, 5′-[…]-3′ (SEQ ID NO: 1) and 5′-[…]-3′ (SEQ ID NO: 2); gp100, 5′-[…]-3′ (SEQ ID NO: 3) and 5′-ID NO: 4); Trp-2, 5′-[…]-3′ (SEQ […]-3′ (SEQ ID NO: 5) and 5′-[…] […]"}, "[3]": {"system": "mTORC1", "experiment": "Western blots for mTORC1 pathway and LC3 autophagy", "assay_type": "cell-based", "description": "(§3) FIGS. 40A-C: CAMB suppresses mTORC1 signals and reduces TIC numbers. FIG. 40A, Western blots for proteins in the mTORC1 pathway. Cells were treated with chlorambucil as indicated concentration for 48 hours. FIG. 40B, Western blot for LC3I/II to assess autophagy in cell lysates treated±chlorambucil at indicated concentrations. FIG. 40C, Percent of ALDH^hi TIC by flow cytometry of ES2 cells cultured±chlorambucil. Percent CD44^+CD24^+ ID8agg TIC and CD44^+CD133^+CD24^+ B16 TIC detected by flow cytometry.\nas §2"}, "[4]": {"system": "B16 cells", "experiment": "Tumor-initiating cell (TIC) flow cytometry, B16 cells", "assay_type": "cell-based, mouse", "description": "as §3, §1"}}, "note": "Entries after “also recorded” stand apart in the source; their conditions may differ.", "data": [{"smiles": "O=C(O)CCCc1ccc(N(CCCl)CCCl)cc1", "note": "[chlorambucil]", "values": [{"measurement": "effect on cell viability", "setting": "[1]; over 2-3 days, human and mouse tumor lines", "value": "little effect on cell viability"}, {"measurement": "expression of PD-L1 in cancer cells", "setting": "[1]; summary statement", "value": "decreased expression of PD-L1"}, {"measurement": "PD-L1 mRNA", "setting": "[2]", "value": "significantly reduced"}, {"measurement": "autophagy", "setting": "[3]", "value": "promote autophagy"}, {"measurement": "mTORC1 signals", "setting": "[3]", "value": "suppress mTORC1 signals; also recorded: inhibits mTORC1 signaling"}, {"measurement": "LC3 lipidation (LC3 I and II)", "setting": "[3]; Western blot", "value": "increased LC3 lipidation"}, {"measurement": "phosphorylation of P70S6K and 4EBP1", "setting": "[3]; Western blot", "value": "reduced phosphorylation of P70S6K and 4EBP1 in a dose-dependent manner"}, {"measurement": "CD44^+CD24^+ TIC population", "setting": "[4]", "value": "significantly reduced"}]}]}
